Assay: Anaerobic Cu(I) titration in competition with bicinchoninic acid (BCA)
Assay type: binding
Protocol: Freeze-dried synthetic PLS peptide (Cambridge Research Biochemicals) was dissolved in DMSO. An aliquot was added to aqueous buffer (10 mM HEPES [pH 7], 20 mM NaCl, 80 mM KCl), and absorbance was recorded at 280 nm. PLS concentration was estimated from the absorbance and the ProtParam estimated extinction coefficient of 2980 M^−1 cm^−1. Concurrently, a sample was submitted for quantitative amino acid analysis (Abingdon Health Laboratory Services). From this analysis, a conversion factor of 2.27 was generated, which was applied to the concentrations determined by A280 nm.
A fusion of PLS to MBP was created using the NEBExpress MBP Fusion and Purification System. Two complementary oligonucleotide primers encoding PLS (optimized for expression in E. coli) were annealed and inserted into the pMal-c5x plasmid at the XmnI and SalI insertion sites. The three mutants MBP:PLS(C6S), MBP:PLS(C17S), and MBP:PLS(C6S/C17S) were created by site-directed mutagenesis (QuikChange II, Agilent). E. coli NEB Express containing the pMal plasmid with the correct MBP:PLS mutant was used to overexpress each protein. Harvested cells were resuspended in 20 mM Tris–HCl (pH 7.4), 200 mM NaCl, and 1 mM EDTA, then frozen at −20°C overnight. Cells were defrosted in cold H2O, sonicated, purified by ammonium sulfate precipitation (where MBP-PLS precipitates >60% saturation), separated on an MBP-Trap column (GE Healthcare), and eluted using buffer containing 10 mM maltose. MBP:PLS-containing fractions were pooled and concentrated using a centrifugal concentrator (Corning, Spin-X UF 30 kDa) and buffer exchanged by desalting column into a metal-free buffer of 20 mM HEPES (pH 7.0) and 50 mM NaCl in an anaerobic chamber (Belle Technology). Mutants containing thiols were quantified using Ellman’s assay, and MBP:PLS(C6S/C17S), which lacks all thiols, was quantified using the Bradford assay alone. Samples were also analyzed for metal content by ICP–MS to ensure >95% apo-protein.
All Cu(I) titration experiments were carried out in an anaerobic chamber (Belle Technology) using metal-free CHELEX-treated, degassed buffers. For titration experiments with Cu(I), aqueous CuSO4 stock was quantified in advance by ICP–MS and diluted to working concentrations. The reductant NH2OH was included at a final concentration of 1 mM to maintain Cu(I) in its reduced state. Proteins were diluted in buffer to the final concentration specified in each titration in air-tight quartz cuvettes (Helma), and after addition of probe to the concentration specified, titrated with CuSO4. After each addition, solutions were thoroughly mixed and absorbance spectra recorded using a Lambda 35 UV/Vis spectrophotometer (PerkinElmer). Titration isotherm data were fitted using simulated affinity curves with DynaFit ([Kuzmič, 2009]).

[1] = 44.8 μM synthetic PLS, 87 μM BCA, anaerobic

Substance: PLS(FL): full-length 36-amino-acid PLS peptide from Arabidopsis (MKPRLCFNFRRRSISPCYISISYLLVAKLFKLFKIH)
- Cu(I) affinity relative to BCA [1]: tighter than that of BCA
- increase in Cu(I) concentration required to saturate BCA [1]: ~20 µM
- withholding of Cu(I) from BCA (synthetic peptide, mutant 40 μM, BCA 93.3 μM, mean ± SD, n = 3 (supplemental Figure 10)): withholds Cu(I) from BCA

From PMC12744750 (Plant Communications, 2025)
